Results as given in ChEMBL document CHEMBL4507293 (2021).

Columns and labels:
[1] = target: T1, Alpha-1A adrenergic receptor (Homo sapiens) (UniProt P35348); conditions: Rattus norvegicus; Compound concentration 10.0 uM
T1 sequence (whole entry): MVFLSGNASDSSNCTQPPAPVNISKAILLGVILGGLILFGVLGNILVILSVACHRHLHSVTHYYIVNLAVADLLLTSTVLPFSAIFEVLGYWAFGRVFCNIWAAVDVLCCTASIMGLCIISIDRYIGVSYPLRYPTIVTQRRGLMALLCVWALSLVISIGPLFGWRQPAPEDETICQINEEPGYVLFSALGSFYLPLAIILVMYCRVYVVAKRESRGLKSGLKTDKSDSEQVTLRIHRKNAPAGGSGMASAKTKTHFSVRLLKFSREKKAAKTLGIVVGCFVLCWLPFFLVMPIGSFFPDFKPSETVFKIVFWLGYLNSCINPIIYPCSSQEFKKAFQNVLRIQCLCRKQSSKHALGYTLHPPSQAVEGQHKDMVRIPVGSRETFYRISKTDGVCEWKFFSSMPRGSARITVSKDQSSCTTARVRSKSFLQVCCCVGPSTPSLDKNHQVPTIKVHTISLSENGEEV

[2] = target: 5-hydroxytryptamine receptor 3A (Homo sapiens) (UniProt P46098); assay: Inhibition of Serotonin (5-Hydroxytryptamine) 5-HT3 at 10 µM in the Eurofins-Panlabs radioligand binding assay (Eurofins_assay_271910); design: ligand concentration 0.69 nM; conditions: Compound concentration 10.0 uM
Sequence of 5-hydroxytryptamine receptor 3A (Homo sapiens) (P46098 whole entry): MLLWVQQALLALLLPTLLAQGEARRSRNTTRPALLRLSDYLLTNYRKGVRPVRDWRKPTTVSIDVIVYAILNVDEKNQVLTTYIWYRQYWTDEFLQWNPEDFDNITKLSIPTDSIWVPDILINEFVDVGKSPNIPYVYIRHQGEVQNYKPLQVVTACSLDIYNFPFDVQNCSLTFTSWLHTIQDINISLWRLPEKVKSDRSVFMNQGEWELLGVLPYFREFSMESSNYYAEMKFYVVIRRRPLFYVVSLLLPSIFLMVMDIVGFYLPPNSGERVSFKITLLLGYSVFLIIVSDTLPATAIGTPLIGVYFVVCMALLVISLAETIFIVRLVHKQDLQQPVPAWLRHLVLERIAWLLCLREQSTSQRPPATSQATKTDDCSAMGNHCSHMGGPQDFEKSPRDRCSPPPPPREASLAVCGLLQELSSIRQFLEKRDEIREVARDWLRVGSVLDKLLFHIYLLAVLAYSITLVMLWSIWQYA

[3] = target: T2, 5-hydroxytryptamine receptor 1A (Homo sapiens) (UniProt P08908); conditions: Compound concentration 10.0 uM
T2 sequence (whole entry): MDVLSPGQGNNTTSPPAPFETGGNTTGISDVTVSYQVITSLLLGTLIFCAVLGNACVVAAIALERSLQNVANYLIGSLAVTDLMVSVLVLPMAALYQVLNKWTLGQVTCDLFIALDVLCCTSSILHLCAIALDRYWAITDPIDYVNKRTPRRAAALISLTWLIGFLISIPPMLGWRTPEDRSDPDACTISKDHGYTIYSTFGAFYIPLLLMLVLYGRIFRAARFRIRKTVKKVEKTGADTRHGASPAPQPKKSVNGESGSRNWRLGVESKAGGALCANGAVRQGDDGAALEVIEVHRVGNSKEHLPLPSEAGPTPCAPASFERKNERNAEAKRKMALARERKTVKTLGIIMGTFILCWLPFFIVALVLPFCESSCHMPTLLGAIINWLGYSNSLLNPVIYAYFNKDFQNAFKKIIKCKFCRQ

[4] = target: Melanocyte-stimulating hormone receptor (Homo sapiens) (UniProt Q01726); assay: Melanocortin MC1 Eurofins-Panlabs radioligand binding assay; conditions: Compound concentration 10.0 uM
Sequence of Melanocyte-stimulating hormone receptor (Homo sapiens) (Q01726 whole entry, looked up): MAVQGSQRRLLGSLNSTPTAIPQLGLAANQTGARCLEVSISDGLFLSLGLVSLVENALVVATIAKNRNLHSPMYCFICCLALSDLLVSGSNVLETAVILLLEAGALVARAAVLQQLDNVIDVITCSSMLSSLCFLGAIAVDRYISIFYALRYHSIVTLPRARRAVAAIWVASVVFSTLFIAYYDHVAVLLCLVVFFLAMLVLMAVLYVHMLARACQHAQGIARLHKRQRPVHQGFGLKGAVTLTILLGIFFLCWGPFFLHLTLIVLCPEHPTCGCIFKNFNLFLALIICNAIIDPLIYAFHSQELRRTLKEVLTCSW

Measured: inhibition

COCCOc1nc(-c2ccc(Cl)nc2)nc2c1CN(C(=O)c1ncn3ccccc13)CC2 [THPP-1]
inactive: [1] 9% | [2] -8% | [3] 8% | [4] 23%
